This passage reports adjuvant activity results from patent US20180311342A1, “IMMUNOSTIMULATING AGENT” (AJINOMOTO CO., INC., priority 2017, published 2018).

The structures appear in SMILES notation.

The first assay concerns anti-OVA-specific IgG1 and IgG2a subclass antibody production. Description: Evaluation test of adjuvant activity (overall conclusion from anti-OVA IgG1 and IgG2a production). The conditions noted are these: Experimental Example 4: conclusion from IgG1/IgG2a after secondary immunization; compound dissolved in saline. Type of assay: in vivo, BALB/c mice. Here is the method:
8-Week-old female BALB/c mice were divided into groups (N=6), and each group was primarily immunized by dorsal-subcutaneous administration of (1) ovalbumin (OVA) (5 μg) dissolved in saline as an antigen (OVA single administration group), (2) OVA 5 μg and Addavax™ (mixed with saline at 1:1) dissolved in saline (Addavax™ administration group) as positive control adjuvant, (3) OVA 5 μg and SZ137 0.256 μmol dissolved or dispersed in 5% α-cyclodextrin (hereinafter to be simply referred to as αCD)-added saline (SZ137 administration group), (4) OVA (5 μg) and SZ138 (0.256 μmol) dissolved or dispersed in 5% αCD-added saline (SZ138 administration group), (5) OVA (5 μg) and SZ142 (0.256 μmol) dissolved or dispersed in 5% αCD-added saline (SZ142 administration group), (6) OVA (5 μg) and SZ144 (0.256 μmol) dissolved or dispersed in 5% αCD-added saline (SZ144 administration group), (7) OVA (5 μg) and SZ145 (0.256 μmol) dissolved or dispersed in 5% αCD-added saline (SZ145 administration group), (8) OVA (5 μg) and SZ146 (0.256 μmol) dissolved or dispersed in 5% αCD-added saline (SZ146 administration group), (9) OVA (5 μg) and SZ147 (0.256 μmol) dissolved or dispersed in 5% αCD-added saline (SZ147 administration group), (10) OVA (5 μg) and SZ148 (0.256 μmol) dissolved or dispersed in 5% αCD-added saline (SZ148 administration group), each per mouse. Two week later, the secondary immunization was carried out by dorsal-subcutaneous administration of solutions or dispersions similar to those of the above-mentioned (1)-(10) again. […]
To a 96 well plate was added 5 μg/ml OVA at 100 µl/well, and the mixture was incubated at 4° C. overnight. After incubation, the mixture was washed three times with 200 μl of PBS-T (PBS (phosphate buffered saline)+0.05% (v/v) Tween 20) per well, and blocked with 100 μl of 5% FCS (fetal calf serum)/PBS solution per well at room temperature for 1-2 hr. Thereafter, the mixture was washed three times with PBS-T (200 μl/well), a diluted serum sample (100 l/well) or the same amount of 5% FCS/PBS solution as a control was added, and the mixture was incubated at 37° C. for 1 hr. To calculate concentration of the antibody, the standard of an anti-OVA-specific IgG1 subclass antibody diluted with 2% FCS/PBS solution was added at 100 ng/ml, 50 ng/ml, 25 ng/ml, 12.5 ng/ml, 6.25 ng/ml, 3.125 ng/ml, 1.56 ng/ml, 0.781 ng/ml, 0.391 ng/ml, 0.195 ng/ml, 0.098 ng/ml, 0 ng/ml, per 1 well. When an anti-OVA-specific IgG2a subclass antibody was measured, the standard of an anti-OVA-specific IgG2a subclass antibody was added at 50 ng/ml, 25 ng/ml, 12.5 ng/ml, 6.25 ng/ml, 3.125 ng/ml, 1.56 ng/ml, 0.781 ng/ml, 0.391 ng/ml, 0.195 ng/ml, 0.098 ng/ml, 0.049 ng/ml, 0 ng/ml, per 1 well. Thereafter, similar to the samples, the mixture was washed five times with PBS-T (200 μl/well), a diluted biotinylated anti-mouse IgG1 antibody and IgG2a antibody were added (100 μl/well), and the mixture was incubated at 37° C. for 45 min. Thereafter, the mixture was washed five times with PBS-T (200 μl/well), a diluted anti-biotin-HRP antibody was added (100 μl/well), and the mixture was incubated at 37° C. for another 30 min. Thereafter, the mixture was washed five times with PBS-T (200 μl/well), TMB substrate solution was added (100 μl/well), and the mixture was incubated at room temperature for 10-15 min. Thereafter, a reaction quenching liquid (2N sulfuric acid solution) was added (50 l/well) to discontinue a color developing reaction, and the absorbance (OD Value=450 nm) was measured by a microplate reader. A standard curve was drawn from the measured OD values, and the concentration was calculated. […]
On to `CCCCCCCCCCCCCCCC(=O)N[C@@H](CCCNC(=N)N)C(=O)NCCCCCCCCCCCC.Cl` [SZ111, N-[(1S)-1-(dodecylcarbamoyl)-4-guanidino-butyl]hexadecanamide hydrochloride], for which the adjuvant activity entry is recorded as “has an adjuvant activity”.

The assay is the same for the next values; noted with them: conclusion from IgG1/IgG2a after primary immunization; compound 0.256 μmol in 5% αCD-added saline with OVA 5 μg, dorsal-subcutaneous.
Turning to `CCCCCCCCCCCCCCCCCCCC(=O)N[C@@H](CCCNC(=N)N)C(=O)NCCCCCCCCCCCC.Cl` [SZ180, N-[(1S)-1-(dodecylcarbamoyl)-4-guanidino-butyl]icosanamide hydrochloride], the adjuvant activity result was “have an adjuvant activity”.
On the same count and under the same terms, as for `CCCCCCCCCCCCCCCC(=O)N[C@@H](CCCNC(=N)N)C(=O)NCCCCCCCC.Cl` [SZ181, N-[(1S)-4-guanidino-1-(octylcarbamoyl)butyl]hexadecanamide hydrochloride], the entry is “have an adjuvant activity”.
Still for that read-out and setting: as for `CCCCCCCCCCCCCCCCCC(=O)N[C@@H](CCCNC(=N)N)C(=O)NCCCCCCCC.Cl` [SZ182, N-[(1S)-4-guanidino-1-(octylcarbamoyl)butyl]octadecanamide hydrochloride], the entry is “have an adjuvant activity”.

Staying with this assay, now noted: conclusion from IgG1/IgG2a after secondary immunization; compound 0.256 μmol in 5% αCD-added saline with OVA 5 μg, dorsal-subcutaneous.
`CCCCCCCCCCCCCCCC(=O)N[C@@H](CCCNC(=N)N)C(=O)NCCCCCCCCCCCC.Cl` [SZ111, N-[(1S)-1-(dodecylcarbamoyl)-4-guanidino-butyl]hexadecanamide hydrochloride]: the adjuvant activity result was “has an adjuvant activity”.
On the same count and under the same terms, next, `CCCCCCCCCCCCCCCCCCCCCC(=O)N[C@@H](CCCNC(=N)N)C(=O)NCCCCCCCCCCCC.Cl` [SZ138, N-[(1S)-1-(dodecylcarbamoyl)-4-guanidino-butyl]docosanamide hydrochloride]: “have an adjuvant activity”; `CCCCCCCCCCCCCCCCCCCCCC(=O)N[C@@H](CC(C)C)C(=O)NCCCCCCCCCCC` [SZ142, N-[(1S)-3-methyl-1-(undecylcarbamoyl)butyl]docosanamide]: “have an adjuvant activity”; `CCCCCCCCCCCCCCCC(=O)N[C@@H](CC(C)C)C(=O)NCCCCCCCCCCCC` [SZ144, N-[(1S)-1-(dodecylcarbamoyl)-3-methyl-butyl]hexadecanamide]: “have an adjuvant activity”.
The same measure, in the same setting: as for `CCCCCCCCCCCCCCCCCCCCCC(=O)N[C@@H](C)C(=O)NCCCCCCCCCCCC` [SZ145, N-[(1S)-2-(dodecylamino)-1-methyl-2-oxo-ethyl]docosanamide], the entry is “have an adjuvant activity”; as for `CCCCCCCCCCCCCCCCCCCCCC(=O)NC(C)(C)C(=O)NCCCCCCCCCCCC` [SZ146, N-[2-(dodecylamino)-1,1-dimethyl-2-oxo-ethyl]docosanamide], “have an adjuvant activity”; as for `CCCCCCCCCCCCCCCCCCCCCC(=O)NCCC(=O)NCCCCCCCCCCCC` [SZ147, N-[3-(dodecylamino)-3-oxo-propyl]docosanamide], “have an adjuvant activity”.
On the same count and under the same terms, next, `CCCCCCCCCCCCCCCCCCCCCC(=O)NCC(C)(C)C(=O)NCCCCCCCCCCCC` [SZ148, N-[3-(dodecylamino)-2,2-dimethyl-3-oxo-propyl]docosanamide]: “have an adjuvant activity”; `CCCCCCCCCCCCCCCCOC(=O)N[C@@H](CCCNC(=N)N)C(=O)NCCCCCCCCCCCC.Cl` [SZ150, Hexadecyl N-[(1S)-1-(dodecylcarbamoyl)-4-guanidino-butyl]carbamate hydrochloride]: “have an adjuvant activity”.
As to `CCCCCCCCCCCCCCCC(=O)N[C@@H](CCCCN)C(=O)NCCCCCCCCCCCC.Cl` [SZ153, N-[(1S)-5-amino-1-(dodecylcarbamoyl)pentyl]hexadecanamide hydrochloride], the adjuvant activity result was “have an adjuvant activity”.
The same measure, in the same setting: next, `CCCCCCCCCCCCCCCCCCCCCC(=O)N[C@@H](CCCC)C(=O)NCCCCCCCCCCCC` [SZ155, N-[(1S)-1-(dodecylcarbamoyl)pentyl]docosanamide]: “have an adjuvant activity”.
In the case of `CCCCCCCCCCCCCCCCCCCCCC(=O)N1CCC(C(=O)NCCCCCCCCCCCC)CC1` [SZ156, 1-docosanoyl-N-dodecyl-piperidine-4-carboxamide], the adjuvant activity result was “have an adjuvant activity”.
On the same count and under the same terms, as for `CCCCCCCCCCCCCCCCCCCCCC(=O)N[C@@H](CCCNC(=N)N)C(=O)N(CCCCCCC)CCCCCCC.Cl` [SZ159, N-[(1S)-1-(diheptylcarbamoyl)-4-guanidino-butyl]docosanamide hydrochloride], the entry is “have an adjuvant activity”; as for `CCCCCCCCCCCCCCCCCCCCCC(=O)N[C@@H](CCCCN)C(=O)NCCCCCCCCCCCC.Cl` [SZ160, N-[(1S)-5-amino-1-(dodecylcarbamoyl)pentyl]docosanamide hydrochloride], “have an adjuvant activity”; as for `CCCCCCCC/C=C/CCCCCCCC(=O)N[C@@H](CCCNC(=N)N)C(=O)NCCCCCCCCCCCC.Cl` [SZ161, (E)-N-[(1S)-1-(dodecylcarbamoyl)-4-guanidino-butyl]octadeca-9-enamide hydrochloride], “have an adjuvant activity”.
The same measure, in the same setting: next, `CCCCCCCCCCCCCCCCCCCCCC(=O)N[C@@H](CCCNC(=N)N)C(=O)NCCCCCCC.Cl` [SZ163, N-[(1S)-4-guanidino-1-(heptylcarbamoyl)butyl]docosanamide hydrochloride]: “have an adjuvant activity”.
Consider `CCCCCCCCCCCCCCCCCCCCCC(=O)N[C@@H](CCCN)C(=O)NCCCCCCCCCCCC.Cl` [SZ165, N-[(1S)-4-amino-1-(dodecylcarbamoyl)butyl]docosanamide hydrochloride], for which the adjuvant activity entry was “have an adjuvant activity”.
As to `CCCCCCCCCCCCCCCCCCCCCC(=O)N[C@@H](CCCCNC(=N)N)C(=O)NCCCCCCCCCCCC.Cl` [SZ166, N-[(1S)-1-(dodecylcarbamoyl)-5-guanidino-pentyl]docosanamide hydrochloride], the adjuvant activity entry is “have an adjuvant activity”.
With `CCCCCCCCCCCCCCCCCCCCCC(=O)N[C@@H](CCCCNC(C)=O)C(=O)NCCCCCCCCCCCC` [SZ167, N-[(1S)-5-acetamide-1-(dodecylcarbamoyl)pentyl]docosanamide], the adjuvant activity entry is “have an adjuvant activity”.
On to `CCCCCCCCCCCCCCCCNC(=O)N[C@@H](CCCNC(=N)N)C(=O)NCCCCCC.Cl` [SZ168, (2S)-5-guanidino-2-(hexadecylcarbamoylamino)-N-hexyl-pentanamide hydrochloride], for which the adjuvant activity result is on record as “have an adjuvant activity”.
On the same count and under the same terms, as for `CCCCCCCCCCCCCCCCOC(=O)N[C@@H](CCCNC(=N)N)C(=O)NCCCCCC.Cl` [SZ169, Hexadecyl N-[(1S)-4-guanidino-1-(hexylcarbamoyl)butyl]carbamate hydrochloride], the entry is “have an adjuvant activity”; as for `CCCCCCCCCCCCCCCCCCCCCC(=O)N[C@@H](CCCCNC(=N)N)C(=O)NCCCCCC.Cl` [SZ170, N-[(1S)-5-guanidino-1-(hexylcarbamoyl)pentyl]docosanamide hydrochloride], “have an adjuvant activity”; as for `CCCCCCCCCCCCCCCCCCCC(=O)N[C@@H](CCCNC(=N)N)C(=O)NCCCCCCCCCCCC.Cl` [SZ180, N-[(1S)-1-(dodecylcarbamoyl)-4-guanidino-butyl]icosanamide hydrochloride], “have an adjuvant activity”.
Still for that read-out and setting: next, `CCCCCCCCCCCCCCCC(=O)N[C@@H](CCCNC(=N)N)C(=O)NCCCCCCCC.Cl` [SZ181, N-[(1S)-4-guanidino-1-(octylcarbamoyl)butyl]hexadecanamide hydrochloride]: “have an adjuvant activity”.
The same measure, in the same setting: as for `CCCCCCCCCCCCCCCCCC(=O)N[C@@H](CCCNC(=N)N)C(=O)NCCCCCCCC.Cl` [SZ182, N-[(1S)-4-guanidino-1-(octylcarbamoyl)butyl]octadecanamide hydrochloride], the entry is “have an adjuvant activity”.
